In experiment [1] the target is T1, unphosphorylated VEGF-R2Δ50 (FLVK) (Homo sapiens, UniProt P35968, DEL940-989/E990V).
T1 construct: VEGF-R2Δ50 contains residues 806–939 and 990–1171; made in house; host or cells: baculovirus/insect cell system
In words: VEGF-R2 coupled spectrophotometric assay, unphosphorylated VEGF-R2Δ50 (FLVK). Format: biochemical. The settings on record: unphosphorylated VEGF-R2Δ50; for inhibition at 0.05 µM: 50 nM compound, read-out: FLVK (% inh @ 50 nM). The essentials:
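Ki obtained by Morrison-equation fitting of activity at varied compound levels; reaction started with 5–40 nM enzyme. Non-autophosphorylated kinase construct (insect cell-expressed) with 3 mM ATP, 20 mM poly(E4Y1), 60 mM MgCl2 plus 2 mM MnCl2, pH 7.5 HEPES; NADH loss at 340 nm via PK/LDH coupling.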

Experiment [2] relates to Huvec. In words: bFGF Huvec proliferation. The experiment is classed as cell-based, human. The settings on record: Homo sapiens, HUVEC.
Experiment [3] concerns the target T2, PDGFRβ (Homo sapiens, UniProt P09619).
T2 construct: expressed in transfected cells; host or cells: porcine aorta endothelial (PAE)-PDGFRβ cells
In words: PAE-PDGFRβ phosphorylation in PAE-PDGFRB cells assay. The experiment is classed as cell-based. Conditions: PAE cells overexpressing human PDGFRβ, PDGF-BB stimulated; read-out: PAE PDGFR autophos IC50 (nM) AVG. The gist of the method: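 Inhibition of PDGF-BB-induced (1 μg/mL, 8 min, with 2 mM vanadate) PDGFRβ autophosphorylation in porcine aortic endothelial cells expressing the human receptor. Cells were starved 16 h and pretreated with compound 1 h at 37 °C. Lysates were captured with anti-PDGFRβ and probed with HRP-PY20 at 450 nm; four-parameter IC50.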

Experiment [4] deals with human umbilical vein endothelial cells (HUVEC). In words: HUVEC+VEGF proliferation assay. Format: cell-based. The settings on record: Homo sapiens, HUVEC; VEGF 6 ng/mL, 72 h, MTT. The essentials:
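Exponentially growing passage 3–4 HUVEC were starved 24 h in F12K + 1% FBS, given compound (0.1% final DMSO) 1 h before 6 ng/mL final VEGF, then cultured 72 h. Proliferation was read as MTT dye reduction (4 h exposure), absorbance at 595 nm.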

The structures appear in SMILES notation.

T2 sequence (P09619 33-1106): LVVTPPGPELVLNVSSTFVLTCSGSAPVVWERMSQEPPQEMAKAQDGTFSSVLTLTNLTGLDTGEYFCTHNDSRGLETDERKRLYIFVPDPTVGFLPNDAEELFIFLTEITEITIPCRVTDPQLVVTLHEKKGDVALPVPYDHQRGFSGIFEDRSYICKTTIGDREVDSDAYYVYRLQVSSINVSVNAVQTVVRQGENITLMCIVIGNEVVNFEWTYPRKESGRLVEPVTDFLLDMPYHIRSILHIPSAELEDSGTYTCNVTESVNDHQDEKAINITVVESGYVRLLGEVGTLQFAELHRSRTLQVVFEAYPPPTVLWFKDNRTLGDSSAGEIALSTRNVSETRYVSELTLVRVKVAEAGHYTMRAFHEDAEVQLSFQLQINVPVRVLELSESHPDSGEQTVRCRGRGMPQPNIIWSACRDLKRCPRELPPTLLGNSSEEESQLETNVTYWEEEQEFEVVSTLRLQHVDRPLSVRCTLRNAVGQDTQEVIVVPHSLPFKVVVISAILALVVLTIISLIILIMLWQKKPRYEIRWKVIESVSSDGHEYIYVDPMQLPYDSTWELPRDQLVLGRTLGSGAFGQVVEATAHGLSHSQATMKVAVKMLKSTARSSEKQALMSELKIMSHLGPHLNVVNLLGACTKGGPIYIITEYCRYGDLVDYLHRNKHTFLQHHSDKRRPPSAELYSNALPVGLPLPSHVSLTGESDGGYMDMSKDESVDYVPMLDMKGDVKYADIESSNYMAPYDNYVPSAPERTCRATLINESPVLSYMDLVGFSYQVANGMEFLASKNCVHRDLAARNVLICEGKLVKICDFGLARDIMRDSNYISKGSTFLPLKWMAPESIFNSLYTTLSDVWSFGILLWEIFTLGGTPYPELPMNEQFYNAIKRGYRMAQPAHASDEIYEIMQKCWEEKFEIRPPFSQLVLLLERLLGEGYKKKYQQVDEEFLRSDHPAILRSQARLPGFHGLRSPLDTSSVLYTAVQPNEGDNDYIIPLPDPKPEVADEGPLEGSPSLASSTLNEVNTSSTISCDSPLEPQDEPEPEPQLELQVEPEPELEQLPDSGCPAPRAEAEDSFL
T1 sequence (P35968 with tags, fused parts or gaps DEL940-989/E990V limits assumed): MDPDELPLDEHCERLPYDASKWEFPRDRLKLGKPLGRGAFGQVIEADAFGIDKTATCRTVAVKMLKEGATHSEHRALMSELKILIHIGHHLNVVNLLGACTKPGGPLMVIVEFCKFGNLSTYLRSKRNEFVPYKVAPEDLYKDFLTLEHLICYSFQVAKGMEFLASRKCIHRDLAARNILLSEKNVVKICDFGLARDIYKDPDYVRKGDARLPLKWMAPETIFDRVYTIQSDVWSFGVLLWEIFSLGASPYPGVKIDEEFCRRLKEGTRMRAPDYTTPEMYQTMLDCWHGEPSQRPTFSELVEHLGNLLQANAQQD

A word on the Ki: it is the dissociation constant of the complex between target and ligand, obtained from inhibition or displacement. What is called IC50 is the point on the concentration scale where inhibition reaches its midpoint. For `Cc1sc2cc(Oc3ccnc4cc(-c5nccn5C)sc34)ccc2c1C(=O)NC1CC1` [Example 117, 2-Methyl-6-{[2-(1-methyl-1H-imidazol-2-yl)thieno[3,2-b]pyridin-7-yl]oxy}benzo[b]thiophene-3-carboxylic acid cyclopropylamide], in experiment [1], the inhibition at 0.05 µM was found to be 87%. For the same compound, the inhibition constant Ki in experiment [1] turned out to be 0.2 nM. Besides, the IC50 in experiment [2] was 86 nM; in experiment [3] it was 189 nM; in experiment [4] it was 0.07 nM.
Turning to `Cc1sc2cc(Oc3ccnc4cc(-c5nccn5C)sc34)ccc2c1C(=O)NCC1CC1` [Example 119, 2-Methyl-6-{[2-(1-methyl-1-imidazol-2-yl)thieno[3,2-b]pyridin-7-yl]oxy}benzo[b]thiophene-3-carboxylic acid (cyclopropylmethyl)amide], the inhibition at 0.05 µM in experiment [1] came to 95%. This compound came in with a Ki in experiment [1] of 0.375 nM. For the same compound, the results for the IC50 in experiment [2], in experiment [3] and in experiment [4] were 1830 nM, 90.6 nM and 1.46 nM, respectively.
As to `COC[C@@H]1CCCN1C(=O)c1cc2nccc(Oc3ccc4c(C(=O)NC5CC5)c(C)sc4c3)c2s1` [Example 120, 6-[(2-{[(2S)-2-(Methoxymethyl)pyrrolidin-1-yl]carbonyl}thieno[3,2-b]pyridin-7-yl)oxy]-2-methylbenzo[b]thiophene-3-carboxylic acid cyclopropylamide], the inhibition at 0.05 µM in experiment [1] is 93%. The compound further registered a Ki in experiment [1] of 0.6 nM. Moreover, the concentration for half-maximal inhibition (IC50) turned out to be 489 nM in experiment [2], 405 nM in experiment [3] and 0.491 nM in experiment [4].
Regarding `Cc1sc2cc(Oc3ccnc4cc(C(=O)N5CC[C@@H](O)C5)sc34)ccc2c1C(=O)NC1CC1` [Example 121, 6[(2-{[(3R)-3-Hydroxypyrrolidin-1-yl]carbonyl}thieno[3,2-b]pyridin-7-yl)oxy]-2-methylbenzo[b]thiophene-3-carboxylic acid cyclopropylamide], the inhibition at 0.05 µM in experiment [1] turned out to be 94%. Moreover, the Ki in experiment [1] came out at 0.2 nM. For the same compound, the IC50 in experiment [2] was 100 nM; in experiment [3], 220 nM; in experiment [4], 0.24 nM.
For `CO[C@@H]1CCN(C(=O)c2cc3nccc(Oc4ccc5c(C(=O)NCCCO)c(C)sc5c4)c3s2)C1` [Example 124, 6-[(2-{[(3R)-3-Methoxypyrrolidin-1-yl]carbonyl}thieno[3,2-b]pyridin-7-yl)oxy]-2-methylbenzo[b]thiophene-3-carboxylic acid 3-hydroxypropylamide], in that order: 82%, 2.19 nM, 8240 nM, 376 nM and 1.6 nM.
For the compound `CO[C@@H]1CCN(C(=O)c2cc3nccc(Oc4ccc5c(C(=O)NCC6CC6)c(C)sc5c4)c3s2)C1` [Example 125, 6-[(2-{[(3R)-3-Methoxypyrrolidin-1-yl]carbonyl}thieno[3,2-b]pyridin-7-yl)oxy]-2-methylbenzo[b]thiophene-3-carboxylic acid (cyclopropylmethyl)amide], the inhibition at 0.05 µM in experiment [1] came to 95%. Further, in experiment [1], the affinity, expressed as Ki, was 0.219 nM. Moreover, the IC50 turned out to be 969 nM in experiment [2], 179 nM in experiment [3] and 2 nM in experiment [4].
On to `Cc1sc2cc(Oc3ccnc4cc(C(=O)N5CC[C@@H](O)C5)sc34)ccc2c1C(=O)NCC1CC1` [Example 126, 6[(2-{[(3R)-3-Hydroxypyrrolidin-1-yl]carbonyl}thieno[3,2-b]pyridin-7-yl)oxy]-2-methylbenzo[b]thiophene-3-carboxylic acid (cyclopropylmethyl)amide], for which the inhibition at 0.05 µM in experiment [1] amounted to 96%. For the same compound, the Ki in experiment [1] came to 0.59 nM. The IC50 in experiment [2] stood at 5660 nM; in experiment [3] it was 336 nM; in experiment [4], 10 nM.
Taken in the same sequence, the figures for `Cc1sc2cc(Oc3ccnc4cc(C(=O)N5CCC5)sc34)ccc2c1C(=O)NC1CC1` [Example 127, 6-{[2-(Azetidin-1-ylcarbonyl)thieno[3,2-b]pyridin-7-yl]oxy}2-methylbenzo[b]thiophene-3-carboxylic acid cyclopropylamide] were 100%, 0.2 nM, 41 nM, 102 nM and 1 nM.
For `CNC(=O)c1c(C)sc2cc(Oc3ccnc4cc(-c5nc(CO)cs5)sc34)ccc12` [Example 128], the inhibition at 0.05 µM in experiment [1] came to 91%. Also, the inhibition constant (Ki) in experiment [1] was 0.57 nM. In addition, the values for the IC50 in experiment [2], in experiment [3] and in experiment [4] were 100 nM, 148 nM and 0.13 nM, respectively.
Consider `Cc1sc2cc(Oc3ccnc4cc(-c5nc(CO)cs5)sc34)ccc2c1C(=O)NC1CC1` [Example 129], for which the inhibition at 0.05 µM in experiment [1] worked out at 88%. This compound registered a Ki in experiment [1] of 0.2 nM. For the same compound, the IC50 was 100 nM in experiment [2], 168 nM in experiment [3] and 0.219 nM in experiment [4].
In the case of `Cc1sc2cc(Oc3ccnc4cc(-c5nc(CO)cs5)sc34)ccc2c1C(=O)NCC1CC1` [Example 130], the inhibition at 0.05 µM in experiment [1] was determined as 95%. Moreover, the Ki in experiment [1] was 0.39 nM. In addition, the IC50 in experiment [2] was determined as 100 nM; in experiment [3], 335 nM; in experiment [4] it was 0.49 nM.
As for `Cc1sc2cc(Oc3ccnc4cc(C(=O)N5CCC5)sc34)ccc2c1C(=O)NCC1CC1` [Example 131, 6-{[2-(Azetidin-1-ylcarbonyl)thieno[3,2-b]pyridin-7-yl]oxy}-2-methylbenzo[b]thiophene-3-carboxylic acid (cyclopropylmethyl)amide], the inhibition at 0.05 µM in experiment [1] turned out to be 96%. Also, affinity in experiment [1] was put at a Ki of 0.2 nM. Also, the IC50 turned out to be 260 nM in experiment [2], 97 nM in experiment [3] and 1.89 nM in experiment [4].
Consider `CCc1sc2cc(Oc3ccnc4cc(-c5nccn5C)sc34)ccc2c1C(=O)NC` [Example 134, 2-Ethyl 6-{[2-(1-methyl-1H-imidazol-2-yl)thieno[3,2-b]pyridin-7-yl]oxy}benzo[b]thiophene-3-carboxylic acid methylamide], for which the inhibition at 0.05 µM in experiment [1] came out at 94%. In addition, the Ki in experiment [1] amounted to 1.44 nM. For the same compound, the IC50 in experiment [2] came out at 1070 nM; in experiment [3], 177 nM; in experiment [4], 0.656 nM.
Turning to `CCc1sc2cc(Oc3ccnc4cc(C(=O)N5CC[C@@H](OC)C5)sc34)ccc2c1C(=O)NC` [Example 135, 2-Ethyl-6-[(2-{[(3R)-3-methoxypyrrolidin-1-yl]carbonyl}thieno[3,2-b]pyridin-7-yl)oxy]benzo[b]thiophene-3-carboxylic acid methylamide], in experiment [1], the inhibition at 0.05 µM turned out to be 87%. The compound also displayed a Ki in experiment [1] of 1.54 nM. For the same compound, the IC50 in experiment [2] amounted to 559 nM; in experiment [3], 212 nM; in experiment [4] it was 1.02 nM.
Turning to `CCc1sc2cc(Oc3ccnc4cc(C(=O)N5CCC[C@H]5COC)sc34)ccc2c1C(=O)NC` [Example 137, 2-Ethyl-6-[(2-{[(2S)-2-(methoxymethyl)pyrrolidin-1-yl]carbonyl}thieno[3,2-b]pyridin-7-yl)oxy]benzo[b]thiophene-3-carboxylic acid methylamide], in experiment [1], the inhibition at 0.05 µM is 64%. In experiment [1], the Ki was 5.1 nM. Also, the IC50 in experiment [2] was 294 nM; in experiment [3] it was 213 nM; in experiment [4] it was 2.1 nM.

The values above are taken from patent US7045528B2, “Benzofused heterozryl amide derivatives of thienopyridines useful as therapeutic agents, pharmaceutical compositions including the same, and methods for their use” (Agouron Pharmaceuticals, Inc., priority 2002, dated 2006).
